The experiment in a line: MIC of test compounds against various organisms. It counts as cell-based. How it is done:
The MIC (μg/ml) of test compounds against various organisms was determined including: S. epidermidis CL7, S. aureus WCUH29, S. pneumoniae 1629, S. pyogenes CN10, H. influenzae ATCC 49247, E.faecalis 2, M. catarrhalis Ravasio, E. coli 7623.

The mark [1] stands for this setting: versus all these organisms (the eight strains of b406), read-out: MIC.
The mark [2] stands for this setting: versus some of these organisms (of the eight strains; which ones not given), read-out: MIC.

The term MIC denotes the smallest concentration in the dilution series that meets the test's criterion for growth inhibition.

Structures are written as SMILES. Counter-ions that a name gives are not always drawn. Like-named read-outs stand apart in the source and are kept apart here.

As to `COc1ccc2nccc(NC(=O)[C@]3(O)C=C[C@@H](NCc4ccc5c(n4)NC(=O)CS5)CC3)c2n1` (racemic) [Example 1, (1R,4S)-1-Hydroxy-4-[(3-oxo-3,4-dihydro-2H-pyrido[3,2-b][1,4]thiazin-6-ylmethyl)-amino]-cyclohex-2-enecarboxylic acid (6methoxy-[1,5]naphthyridin-4-yl)-amide dihydrochloride and (1S,4R)-1-Hydroxy-4-[(3-oxo-3,4-dihydro-2H-pyrido[3,2-b][1,4]thiazin-6-ylmethyl)-amino]-cyclohex-2-enecarboxylic acid (6-methoxy-[1,5]naphthyridin-4-yl)-amide dihydrochloride], the MIC was at most 2 µg/mL. Still for that read-out and setting: the figure for `COc1ccc2nccc(NC(=O)[C@]3(O)C=C[C@@H](NCc4ccc5c(n4)NC(=O)CO5)CC3)c2n1` (racemic) [Example 2, (1R,4S)-1-Hydroxy-4-[(3-oxo-3,4-dihydro-2H-pyrido[3,2-b][1,4]oxazin-6-ylmethyl)-amino]-cyclohex-2-enecarboxylic acid (6-methoxy-[1,5]naphthyridin-4-yl)-amide dihydrochloride and (1S,4R)-1-Hydroxy-4-[(3-oxo-3,4-dihydro-2H-pyrido[3,2-b][1,4]oxazin-6-ylmethyl)-amino]-cyclohex-2-enecarboxylic acid (6-methoxy-[1,5]naphthyridin-4-yl)-amide dihydrochloride] is at most 2 µg/mL.

Regarding `COc1ccc2nccc(NC(=O)[C@@]3(O)C=C[C@H](NCc4cc5c(cn4)OCCO5)CC3)c2n1` [Example 3], under setting [1], the MIC is at most 2 µg/mL. In the case of `COc1ccc2nccc(NC(=O)[C@@]3(O)C=C[C@H](NCc4cnc5c(c4)OCCO5)CC3)c2n1` [Example 5], the MIC under setting [1] was at most 2 µg/mL. As for `COc1ccc2nccc(NC(=O)[C@@]3(O)C=C[C@H](NCc4ccc5c(n4)OCCO5)CC3)c2n1` [Example 6], the MIC under setting [2] was at most 1 µg/mL. The same measure, in the same setting: the figure for `COc1ccc2nccc(NC(=O)[C@@]3(O)C=C[C@H](NCc4ncc5c(n4)OCCO5)CC3)c2n1` [Example 7] is at most 1 µg/mL; for `COCCOc1c(F)ccc2nccc(NC(=O)[C@@]3(O)C=C[C@H](NCc4cc5c(cn4)OCCO5)CC3)c12` [Example 11] it is at most 1 µg/mL; for `COc1ccc2nccc(NC(=O)[C@@]3(O)C=C[C@H](NCc4cc5c(cn4)OCCO5)CC3)c2c1F` [Example 12] it is at most 1 µg/mL.

The record behind these values is patent publication US20060040925A1, “Aminocyclohexene quinolines and their azaisosteric analogues with antibacterial activity” (priority 2002, published 2006).
